Some test systems named below: HCT-116 colon; 786-0 renal; UO-31 renal; SW-620 colon; SN12C renal; EKVX NSCLC; U251 CNS; OVCAR-8 ovarian; MOLT-4 leukemia; SK-MEL-28 melanoma; OVCAR-3 ovarian; M14 melanoma; ACHN renal; UACC-257 melanoma; HCT-15 colon.
Common to all, as to assay: NCI anticancer screen, dose series, 48 h

TGI data for 15 compounds are collected here from PubChem BioAssay (NCI).

SMILES strings stand for the structures.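 Growth conditions: 96-well plates. Treatment: test compound, 48 hours, 5 concentrations. Analysis: linear interpolation between bracketing concentrations; unreached endpoints set to highest concentration. TGI denotes the concentration required for complete inhibition of growth.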 Where only a bound is given, the exact number is not on record here.

For `C=CCC(N(C)C(=O)[C@H](Cc1ccccc1)NC(=O)OCc1ccccc1)P(=O)(Oc1ccccc1)Oc1ccccc1` (stereo partly drawn), the TGI in the assay on HCT-116 colon, in the assay on 786-0 renal, in the assay on UO-31 renal, in the assay with SW-620 colon, in the assay on SN12C renal and in the assay on EKVX NSCLC was > 100 µM throughout. In addition, the TGI in the assay with U251 CNS, in the assay with OVCAR-8 ovarian, in the assay with MOLT-4 leukemia, in the assay on SK-MEL-28 melanoma, in the assay on OVCAR-3 ovarian and with M14 melanoma was > 100 µM each time. Besides, the TGI in the assay with ACHN renal and in the assay with UACC-257 melanoma was > 100 µM each time.
For `COC(=O)C(C#CCCCCC#CC(NC(=O)OCc1ccccc1)(C(=O)OC)C(F)(F)F)(NC(=O)OCc1ccccc1)C(F)(F)F` (stereo not drawn), the TGI in the assay on HCT-116 colon, in the assay with 786-0 renal, with UO-31 renal, in the assay with SW-620 colon, in the assay with SN12C renal and in the assay with EKVX NSCLC was > 100 µM throughout. In addition, the TGI in the assay on U251 CNS, in the assay with OVCAR-8 ovarian, in the assay on HCT-15 colon, in the assay with SK-MEL-28 melanoma, in the assay on OVCAR-3 ovarian and in the assay with M14 melanoma was > 100 µM in each case. For the same compound, the TGI with ACHN renal and with UACC-257 melanoma was > 100 µM each time.
As to `CC1CN(c2ccc(Cl)cc2)CC(C)OC(=O)O1` (stereo not drawn), the TGI in the assay on 786-0 renal, with UO-31 renal, in the assay on SW-620 colon, in the assay with SN12C renal, in the assay with EKVX NSCLC and in the assay with U251 CNS was > 100 µM throughout. Further, the TGI in the assay on OVCAR-8 ovarian, in the assay on HCT-15 colon, in the assay with SK-MEL-28 melanoma, with OVCAR-3 ovarian, in the assay on M14 melanoma and in the assay on ACHN renal was > 100 µM each time. Besides, the TGI in the assay with UACC-257 melanoma was > 100 µM.
`C=CCNC(=O)N(CCCC(NC(C)=O)C(=O)NCc1ccccc1)Cc1ccccc1` (stereo not drawn): the TGI in the assay on 786-0 renal, in the assay with UO-31 renal, with SW-620 colon, in the assay on SN12C renal, in the assay on EKVX NSCLC and in the assay on U251 CNS was > 100 µM each time. Also, the TGI in the assay on OVCAR-8 ovarian, with MOLT-4 leukemia, with HCT-15 colon, in the assay on SK-MEL-28 melanoma, in the assay on OVCAR-3 ovarian and in the assay on M14 melanoma was > 100 µM in each case. For the same compound, the TGI in the assay with ACHN renal and with UACC-257 melanoma was > 100 µM in each case.
For the compound `COC(=O)/C(=N\NC(=O)C[N+](C)(C)C)C(C(=O)OC)C(=O)C(=O)Nc1ccccc1C(N)=O` (stereo not drawn), the TGI in the assay with HCT-116 colon, in the assay with 786-0 renal, in the assay on UO-31 renal, with SW-620 colon, in the assay with SN12C renal and in the assay with EKVX NSCLC was > 100 µM throughout. Also, the TGI with U251 CNS, in the assay with MOLT-4 leukemia, in the assay on HCT-15 colon, in the assay on SK-MEL-28 melanoma, in the assay with OVCAR-3 ovarian and in the assay on M14 melanoma was > 100 µM in each case. Moreover, the TGI with ACHN renal and in the assay with UACC-257 melanoma was > 100 µM in each case.
As for `Clc1ccc(N=Nc2nc3ccccc3nc2N=Nc2ccc(Cl)cc2Cl)c(Cl)c1`, the TGI with HCT-116 colon, with 786-0 renal, with UO-31 renal, with SW-620 colon, in the assay on SN12C renal and in the assay on EKVX NSCLC was > 100 µM throughout. For the same compound, the TGI in the assay with U251 CNS, with OVCAR-8 ovarian, with MOLT-4 leukemia, with HCT-15 colon, in the assay on SK-MEL-28 melanoma and in the assay on OVCAR-3 ovarian was > 100 µM each time. The TGI in the assay on ACHN renal and in the assay on UACC-257 melanoma was > 100 µM in each case.
Turning to `O=C1NC(=S)N/C1=C\c1ccc(Br)s1`, the TGI in the assay on HCT-116 colon, in the assay with 786-0 renal, with UO-31 renal, in the assay on SW-620 colon, in the assay on SN12C renal and with EKVX NSCLC was > 100 µM throughout. In addition, the TGI with U251 CNS, with MOLT-4 leukemia, in the assay with HCT-15 colon, with SK-MEL-28 melanoma, with OVCAR-3 ovarian and in the assay on ACHN renal was > 100 µM each time. Besides, the TGI with UACC-257 melanoma is > 100 µM.
As for `COc1ccc(N=Cc2ccc(N(CCC#N)S(=O)(=O)c3ccccc3)cc2)cc1`, the TGI in the assay with HCT-116 colon, in the assay with 786-0 renal, in the assay on UO-31 renal, in the assay with SW-620 colon, in the assay with SN12C renal and in the assay on EKVX NSCLC was > 100 µM throughout. For the same compound, the TGI in the assay with U251 CNS, with OVCAR-8 ovarian, with MOLT-4 leukemia, with HCT-15 colon, with SK-MEL-28 melanoma and with OVCAR-3 ovarian was > 100 µM each time. Moreover, the TGI with M14 melanoma, with ACHN renal and in the assay with UACC-257 melanoma was > 100 µM in each case.
Consider `O=C1c2ccccc2OP(=O)(OCC(F)(F)F)OC1(C(F)(F)F)C(F)(F)F` (stereo not drawn), for which the TGI in the assay on HCT-116 colon, with 786-0 renal, with UO-31 renal, in the assay on SW-620 colon, in the assay with SN12C renal and in the assay with EKVX NSCLC was > 100 µM each time. The TGI in the assay with U251 CNS, in the assay with OVCAR-8 ovarian, with MOLT-4 leukemia, in the assay on HCT-15 colon, in the assay with SK-MEL-28 melanoma and with M14 melanoma was > 100 µM each time. Also, the TGI in the assay with ACHN renal and in the assay with UACC-257 melanoma was > 100 µM throughout.
On to `N#C/C(c1nc2ccccc2[nH]1)=c1\s/c(=C/c2ccc(Cl)cc2)c(=O)n1-c1ccccc1`, for which the TGI in the assay with HCT-116 colon, in the assay with 786-0 renal, in the assay on UO-31 renal, in the assay on SW-620 colon, in the assay with SN12C renal and with EKVX NSCLC was > 100 µM each time. In addition, the TGI in the assay with U251 CNS, with OVCAR-8 ovarian, in the assay on MOLT-4 leukemia, in the assay on HCT-15 colon, in the assay on SK-MEL-28 melanoma and in the assay on OVCAR-3 ovarian was > 100 µM in each case. Moreover, the TGI with M14 melanoma, in the assay with ACHN renal and with UACC-257 melanoma was > 100 µM each time.
On to `Cc1ccc(N2C(=O)CS/C2=C(\C#N)c2nc3ccccc3[nH]2)cc1`, for which the TGI in the assay on HCT-116 colon, with 786-0 renal, in the assay with UO-31 renal, in the assay with SW-620 colon, with SN12C renal and in the assay on EKVX NSCLC was > 100 µM throughout. Moreover, the TGI in the assay with U251 CNS, in the assay on OVCAR-8 ovarian, with MOLT-4 leukemia, in the assay with HCT-15 colon, in the assay on SK-MEL-28 melanoma and in the assay on OVCAR-3 ovarian was > 100 µM in each case. Moreover, the TGI in the assay with M14 melanoma, in the assay with ACHN renal and with UACC-257 melanoma was > 100 µM each time.
In the case of `CCC12CCCN(Cc3ccccc3)C1c1c(n(C)c3ccccc13)C(C(=O)OC)C2` (stereo not drawn), the TGI with HCT-116 colon, in the assay with 786-0 renal, with SW-620 colon, with SN12C renal, in the assay with EKVX NSCLC and in the assay on U251 CNS was > 239 µM each time. The TGI in the assay on OVCAR-8 ovarian is > 239 µM; with MOLT-4 leukemia, > 239 µM; with HCT-15 colon it was > 239 µM; in the assay on SK-MEL-28 melanoma it was > 239 µM; with OVCAR-3 ovarian it was 170 µM; in the assay on ACHN renal, > 239 µM. The compound further registered a TGI with UACC-257 melanoma of 191 µM.
Regarding `CC(=O)NNc1nc(C)c(C(=O)/C=C/c2ccccc2Cl)s1`, the TGI in the assay with 786-0 renal, with UO-31 renal, in the assay on SW-620 colon, in the assay on SN12C renal, with EKVX NSCLC and with U251 CNS was > 100 µM in each case. Also, the TGI in the assay with OVCAR-8 ovarian, in the assay with MOLT-4 leukemia, in the assay with HCT-15 colon, with SK-MEL-28 melanoma, in the assay on OVCAR-3 ovarian and with ACHN renal was > 100 µM each time. Further, the TGI with UACC-257 melanoma was > 100 µM.
`Nc1nc(SCc2ccc([N+](=O)[O-])cc2)nc2c1ncn2C1OC(CO)C(O)C1O` (stereo not drawn): the TGI in the assay on HCT-116 colon, with 786-0 renal, in the assay with UO-31 renal, in the assay with SW-620 colon, with SN12C renal and in the assay with EKVX NSCLC was > 100 µM throughout. Further, the TGI in the assay on U251 CNS, in the assay on OVCAR-8 ovarian, in the assay with MOLT-4 leukemia, in the assay on HCT-15 colon, in the assay on SK-MEL-28 melanoma and in the assay with OVCAR-3 ovarian was > 100 µM each time. The TGI in the assay on ACHN renal and in the assay on UACC-257 melanoma was > 100 µM each time.
Take `CN1c2ccccc2N(C(=O)c2ccc(Cl)cc2)C(CC(=O)O)c2cccn21` (stereo not drawn): the TGI in the assay on 786-0 renal, with UO-31 renal, with SW-620 colon, in the assay with SN12C renal, in the assay on EKVX NSCLC and in the assay on OVCAR-8 ovarian was > 100 µM each time. For the same compound, the TGI with MOLT-4 leukemia, with HCT-15 colon, in the assay on SK-MEL-28 melanoma, with OVCAR-3 ovarian, with M14 melanoma and in the assay with ACHN renal was > 100 µM each time. In the assay with UACC-257 melanoma, the TGI is > 100 µM.
